Consider 3 compounds from article PMC4726147, “Structural Insights into the Quaternary Catalytic Mechanism of Hexameric Human Quinolinate Phosphoribosyltransferase, a Key Enzyme in de novo NAD Biosynthesis” (Scientific Reports, 2016).

Usually Kd stands for the constant that tells how readily two partners part at equilibrium. A lower Kd goes with tighter binding.

What all share (assay type): binding
Test [1] concerns the target T1, Quinolinate phosphoribosyltransferase (HsQPRT) (Homo sapiens, UniProt Q15274).
T1 construct: gene QPRT; full-length HsQPRT (residues 1–297), hexamer
Briefly: co-crystal structure ([…] Å).

Test [2] deals with T1, Quinolinate phosphoribosyltransferase (HsQPRT). The test is described as follows: ITC. A general note: Isothermal titration calorimetry measures the heat released or taken up as one component is titrated into another.
The target of test [3] is T2, Quinolinate phosphoribosyltransferase (HsQPRT) NΔ9 mutant (Homo sapiens, UniProt Q15274, NΔ9).
T2 construct: gene QPRT; NΔ9, N-terminal truncated (helix α1 removed), dimer
The test is described as follows: ITC.

In test [4] the target is T1, Quinolinate phosphoribosyltransferase (HsQPRT). Briefly: ITC and crystal structure ([…] Å).

T1 sequence (Q15274 whole entry, the tested form may be a part): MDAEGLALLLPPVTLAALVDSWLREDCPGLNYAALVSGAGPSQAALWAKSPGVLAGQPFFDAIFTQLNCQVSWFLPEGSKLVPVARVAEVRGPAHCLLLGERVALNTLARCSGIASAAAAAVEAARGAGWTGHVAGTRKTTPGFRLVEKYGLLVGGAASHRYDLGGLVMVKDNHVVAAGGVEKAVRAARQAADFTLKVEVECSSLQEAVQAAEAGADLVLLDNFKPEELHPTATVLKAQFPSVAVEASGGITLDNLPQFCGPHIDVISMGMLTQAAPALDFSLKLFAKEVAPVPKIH
T2 sequence (Q15274 10-297, stated change not applied): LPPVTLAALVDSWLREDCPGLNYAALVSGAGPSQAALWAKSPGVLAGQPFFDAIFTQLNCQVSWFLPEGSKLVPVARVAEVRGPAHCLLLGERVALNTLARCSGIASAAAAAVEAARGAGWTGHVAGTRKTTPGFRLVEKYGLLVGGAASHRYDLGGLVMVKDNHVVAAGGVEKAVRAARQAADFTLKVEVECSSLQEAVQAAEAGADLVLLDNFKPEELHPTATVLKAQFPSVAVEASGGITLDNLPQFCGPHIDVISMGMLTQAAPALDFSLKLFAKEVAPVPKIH

Turning to `O=C(O)c1ccc[n+]([C@@H]2O[C@H](COP(=O)([O-])O)[C@@H](O)[C@H]2O)c1` [NAMN, nicotinic acid mononucleotide], in test [1], the “co-crystal structure (2.6 Å)” value is “clear density for two loops (loops L and O) and the substrate molecules (QA and NAMN) bound to the protein”. Consider `O=C(O)c1ccccc1C(=O)O` [phthalic acid], for which the dissociation constant (Kd) in test [2] was found to be 5.2 ± 0.2 µM. Turning to `O=C(O)c1cccnc1C(=O)O` [QA, quinolinic acid], the Kd in test [3] stood at 401 ± 56 µM; in test [4], 4.8 ± 0.4 µM.
